Laboratory results from patent US5405861A, “Triazole compounds and antifungal compositions thereof” (Takeda Chemical Industries, Co., Ltd., priority 1989, dated 1995).

Assays:
[1] = tested on: Penicillium chrysogenum IFO 4626; experiment: Antifungal activity, paper disc growth inhibition zone (Table 4); type: cell-based; details: IFO4626, 48 h, medium A, 28° C., 2 days, disc soaked in 1000 μg/ml solution in methanol, read-out: Inhibition zone diameter
Protocol: (§1) The antifungal activities of the compounds (I) were evaluated by the following method: a sheet of filter paper disc (manufactured by Toyo Seisakusho, 8 mm in diameter) soaked in a 1000 μg/ml solution of a compound (I) in methanol was placed on an agar plate, which was incubated at 28° C. for 2 days, and the diameter of the growth inhibition zone around the filter paper disc was measured. The following culture media were used:
(§2) A: yeast nitrogen base agar medium

[2] = tested on: Aspergillus fumigatus IFO 6344; experiment: as above; type: cell-based; details: IFO6344, 48 h, medium A, 28° C., 2 days, disc soaked in 1000 μg/ml solution in methanol, read-out: Inhibition zone diameter
Protocol: as §1, §2

[3] = tested on: Candida albicans IFO 0583; experiment: as above; type: cell-based; details: IFO0583, 48 h, medium A, 28° C., 2 days, disc soaked in 1000 μg/ml solution in methanol, read-out: Inhibition zone diameter
Protocol: as §1, §2

[4] = tested on: Aspergillus niger IFO 4066; experiment: as above; type: cell-based; details: IFO4066, 48 h, medium A, 28° C., 2 days, disc soaked in 1000 μg/ml solution in methanol, read-out: Inhibition zone diameter
Protocol: as §1, §2

[5] = tested on: Candida albicans (Ca--O) IFO 0583; experiment: as above; type: cell-based; details: IFO0583, 48 h, medium A, 28° C., 2 days, disc soaked in 1000 μg/ml solution in methanol, read-out: Inhibition zone diameter
Protocol: as §1, §2

[6] = tested on: Trichophyton rubrum IFO 6467; experiment: as above; type: cell-based; details: IFO6467, 48 h, medium C (Sabouraud agar), 28° C., 2 days, disc soaked in 1000 μg/ml solution in methanol, read-out: Inhibition zone diameter
Protocol: as §1, with “measured.” for “measured. The following culture media were used:”

[7] = tested on: Trichophyton mentagrophytes IFO 7522; experiment: as above; type: cell-based; details: IFO7522, 48 h, medium C (Sabouraud agar), 28° C., 2 days, disc soaked in 1000 μg/ml solution in methanol, read-out: Inhibition zone diameter
Protocol: as §1, with “measured.” for “measured. The following culture media were used:”

[8] = tested on: Microsporum gypseum IFO 6075; experiment: as above; type: cell-based; details: Nannizzia gypsea, IFO6075, 48 h; medium C (Sabouraud agar), 28° C., 2 days, disc soaked in 1000 μg/ml solution in methanol; read-out: Inhibition zone diameter
Protocol: as §1, with “measured.” for “measured. The following culture media were used:”

Candida albicans = experiment: Infection-preventing effect in experimental infection in mice, Method 1 (Table 7-1); type: in vivo, Crj:CDF1 mice; details: Candida albicans, sc, 168 h, s.c., given 0 and 2 hours after infection; survival 7 days after infection; total dose; read-out: ED50
Protocol: Method 1 (Table 7-1): To 5-week-old Crj:CDF1 mice the minimum lethal dose of Candida albicans was inoculated intravenously. The test drug was given twice 0 and 2 hours after infection. The effectiveness of the drug was expressed in ED50 values calculated by the Reed and Muench method from the survival rate 7 days after infection. The ED50 values were calculated based on the total dose given on the two occasions.

[9] = tested on: Candida albicans (IFO 0538); experiment: Antifungal activity against Candida albicans, paper disc growth inhibition zone (Tables 5 and 6); type: cell-based; details: 48 h, pH 7, B medium (yeast nitrogen base agar, pH 7.0), 28° C., 2 days incubation; read-out: Inhibition zone diameter
Protocol: as §1, §2
B: yeast nitrogen base agar medium (pH 7.0)

Row | Structure (SMILES) | zone of inhibition at 1000 µg/mL [1] | zone of inhibition at 1000 µg/mL [2] | zone of inhibition at 1000 µg/mL [3] | zone of inhibition at 1000 µg/mL [4] | zone of inhibition at 1000 µg/mL [5] | zone of inhibition at 1000 µg/mL [6] | zone of inhibition at 1000 µg/mL [7] | zone of inhibition at 1000 µg/mL [8] | ED50 (Candida albicans) | zone of inhibition at 1000 µg/mL [9]
1 | C[C@@H](Sc1nc2c(s1)CCC2)[C@](O)(Cn1cncn1)c1ccc(F)cc1F (relative stereo) [Compound 12] | 15 mm | 38 mm | 42 mm | 20 mm | 41 mm | 35 mm | 32 mm | 35 mm | 2.5 mg/kg | 25 mm
2 | C[C@@H](SCc1ccncc1)[C@](O)(Cn1cncn1)c1ccc(F)cc1F (relative stereo) [Compound 15] | 23 mm | 30 mm | 34 mm | 29 mm | 32 mm | 60 mm | 50 mm | 45 mm | 2.5 mg/kg | 25 mm
